Laboratory results: article PMC3445454, “Broad and Cross-Clade CD4^+ T-Cell Responses Elicited by a DNA Vaccine Encoding Highly Conserved and Promiscuous HIV-1 M-Group Consensus Peptides” (PLoS ONE, 2012)
Positions count from the first letter of the chain named. Where two headings read alike, the source gives them in different places. Ends that are not written are not given here.

What was measured:
Assay in all cases: biochemical
Type in all cases: binding
HLA-DR DRB1*03:01 = HLA-DR DRB1*03:01 (Homo sapiens, UniProt P01903+P01911, A100K/A102G/A103R/A169T/F55Y/I96L/K41T/L162R/M171V/P40S/Q125H/Q178H/Q39Y/R42S/S66N/T106N/T262R/W38E/Y61H)
HLA-DR DRB1*04:05 = HLA-DR DRB1*04:05 (Homo sapiens, UniProt P01903+P01911, A100R/A169T/D86S/F76Y/I96L/K127E/L162R/M171V/N62H/P40V/Q125Y/R42H/S133A/S149N/S66Y/V115G/V209L/W38E)
HLA-DR DRB1*09:01 = HLA-DR DRB1*09:01 (Homo sapiens, UniProt P01903+P01911, A100R/A103E/D57H/D86V/F55Y/F60I/F76Y/I96F/K127E/L162R/M171V/P40D/Q125H/Q99R/R33Q/R42F/S133A/S66N/T210M/V115G/W38K/Y107V/Y59G/Y89S)
HLA-DR DRB1*11:01 = HLA-DR DRB1*11:01 (Homo sapiens, UniProt P01903+P01911, A100R/A169T/A87E/I96F/K41T/L162R/M171V/P40S/Q125H/Q178H/Q39Y/Q99D/R42S/S66Y/T262R/V115G/W38E)
HLA-DR DRB1*12:01 = HLA-DR DRB1*12:01 (Homo sapiens, UniProt P01903+P01911, A100R/A169T/D57E/D86V/F55L/H45Y/K41T/L162R/M171V/P40S/Q125H/Q178H/Q39Y/Q99D/R42G/S66L/T262R/V114A/V67L/W38E/Y59H/Y61H/Y89S)
HLA-DR DRB1*15:01 = HLA-DR DRB1*15:01 (Homo sapiens, UniProt P01903+P01911)
HLA-DR DRB1*16:02 = HLA-DR DRB1*16:02 (Homo sapiens, UniProt P01903+P01911, A100R/F76Y/I96L/Q99D/V115G)
HLA-DR DRB3*02:02 = HLA-DR DRB3*02:02 (Homo sapiens, UniProt P01903+P79483, A212P/D57E/F66Y/L67A/R103Q/R218S/R40L/S89Y/T80R/V86D/Y55F/Y59H)
HLA-DR DRB4*01:01 = HLA-DR DRB4*01:01 (Homo sapiens, UniProt P01903+P13762, G164S)
HLA-DR DRB5*01:01 = HLA-DR DRB5*01:01 (Homo sapiens, UniProt P01903+Q30154)
[1] = target: T1, HLA-DP DPA1*01:03/DPB1*02:01 (Homo sapiens, UniProt P04440+P20036, A65V/A84D/A85E/K98E)
T1 sequence (P20036 29-260): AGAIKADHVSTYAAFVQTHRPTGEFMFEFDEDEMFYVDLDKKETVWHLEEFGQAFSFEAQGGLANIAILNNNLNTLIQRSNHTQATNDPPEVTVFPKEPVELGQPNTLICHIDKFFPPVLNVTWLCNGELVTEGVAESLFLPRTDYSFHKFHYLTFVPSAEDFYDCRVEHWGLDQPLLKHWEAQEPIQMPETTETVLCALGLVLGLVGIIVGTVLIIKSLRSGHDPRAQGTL
T1 sequence (P04440 30-258 A65V/A84D/A85E/K98E): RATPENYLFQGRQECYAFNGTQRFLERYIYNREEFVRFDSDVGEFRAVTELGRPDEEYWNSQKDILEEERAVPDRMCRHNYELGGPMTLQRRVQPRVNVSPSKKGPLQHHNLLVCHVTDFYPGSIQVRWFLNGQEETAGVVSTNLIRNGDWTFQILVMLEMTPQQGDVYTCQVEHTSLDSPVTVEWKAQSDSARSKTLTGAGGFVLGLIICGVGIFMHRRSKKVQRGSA

[2] = target: T2, HLA-DP DPA1*01:03/DPB1*04:01 (Homo sapiens, UniProt P04440+P20036)
T2 sequence (P20036 29-260): T1 sequence (P20036 29-260)
T2 sequence (P04440 30-258): T1 sequence (P04440 30-258 A65V/A84D/A85E/K98E) with V36A, D55A, E56A, E69K

[3] = target: T3, HLA-DP DPA1*02:01/DPB1*14:01 (Homo sapiens, UniProt P04440+P20036, A65V/A84D/A85E/E86D/F191V/F38H/G113D/G114E/G40L/I94L/K142R/L158P/L37V/M105V/M116V/M62Q/P115A/Q81R/R125K/T114A/T199I/T259P)
T3 sequence (P20036 29-260 A42M/M62Q/Q81R/T114A/K142R/L158P/F191V/T259P): T1 sequence (P20036 29-260) with A14M, M34Q, Q53R, T86A, K114R, L130P, F163V, T231P
T3 sequence (P04440 30-258 L37V/F38H/G40L/A65V/A84D/A85E/E86D/I94L/M105V/G113D/G114E/P115A/M116V/R125K/T199I/R223Q): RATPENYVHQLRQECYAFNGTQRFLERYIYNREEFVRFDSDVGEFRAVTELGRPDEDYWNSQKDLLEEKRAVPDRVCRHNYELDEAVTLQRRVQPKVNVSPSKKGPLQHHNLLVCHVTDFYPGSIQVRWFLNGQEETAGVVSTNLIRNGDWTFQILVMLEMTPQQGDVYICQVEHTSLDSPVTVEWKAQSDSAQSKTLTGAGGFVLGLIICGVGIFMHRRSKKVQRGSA

[4] = read-out: Binding capacity/IC50 (nM) DRB1*15:01
[5] = read-out: Binding capacity/IC50 (nM) DRB4*01:01
[6] = read-out: Binding capacity/IC50 (nM) DPA1*01:03 DPB1*02:01
[7] = read-out: Binding capacity/IC50 (nM) DRB1*04:05
[8] = read-out: Binding capacity/IC50 (nM) DRB1*09:01
[9] = read-out: Binding capacity/IC50 (nM) DRB1*11:01
[10] = read-out: Binding capacity/IC50 (nM) DRB1*12:01
[11] = read-out: Binding capacity/IC50 (nM) DRB1*16:02
[12] = read-out: Binding capacity/IC50 (nM) DRB5*01:01
[13] = read-out: Binding capacity/IC50 (nM) DRB1*03:01
[14] = read-out: Binding capacity/IC50 (nM) DRB3*02:02
[15] = read-out: Binding capacity/IC50 (nM) DPA1*01:03 DPB1*04:01
[16] = read-out: Binding capacity/IC50 (nM) DPA1*02:01 DPB1*14:01

Compound	IC50 (HLA-DR DRB1*15:01; [4]) [nM]	IC50 (HLA-DR DRB3*02:02) [nM]	IC50 (HLA-DR DRB4*01:01; [5]) [nM]	IC50 [1, 6] [nM]	IC50 [2] [nM]	IC50 [3] [nM]	IC50 (HLA-DR DRB1*04:05; [7]) [nM]	IC50 (HLA-DR DRB1*09:01; [8]) [nM]	IC50 (HLA-DR DRB1*11:01; [9]) [nM]	IC50 (HLA-DR DRB1*12:01; [10]) [nM]	IC50 (HLA-DR DRB1*16:02; [11]) [nM]	IC50 (HLA-DR DRB5*01:01; [12]) [nM]	IC50 (HLA-DR DRB1*03:01; [13]) [nM]	IC50 (HLA-DR DRB3*02:02; [14]) [nM]	IC50 [2, 15] [nM]	IC50 [3, 16] [nM]	other results
CSCC[C@H](NC(=O)[C@H](CCCCN)NC(=O)[C@H](C)NC(=O)[C@H](Cc1ccc(O)cc1)NC(=O)[C@H](CCCCN)NC(=O)CNC(=O)[C@@H](NC(=O)[C@H](CCCCN)NC(=O)[C@H](CC(C)C)NC(=O)[C@H](CC(N)=O)NC(=O)[C@H](CCCCN)NC(=O)[C@H](Cc1ccccc1)NC(=O)[C@@H]1CCCN1C(=O)[C@H](CCC(=O)O)NC(=O)[C@@H](N)CCC(N)=O)[C@@H](C)O)C(N)=O [RT(343-357)]	47	8610	2920	115	14	15100	–	–	–	–	–	–	–	–	–	–	IC50 (HLA-DR DRB1*03:01): 23300 nM; IC50 (HLA-DR DRB1*04:05): 277 nM; IC50 (HLA-DR DRB1*09:01): 335 nM; IC50 (HLA-DR DRB1*11:01): 428 nM; IC50 (HLA-DR DRB1*12:01): 239 nM; IC50 (HLA-DR DRB1*16:02): 464 nM; IC50 (HLA-DR DRB5*01:01): 1.6 nM
CC[C@H](C)[C@H](NC(=O)[C@@H]1CCCN1C(=O)[C@H](CCC(=O)O)NC(=O)[C@@H](N)CCCCN)C(=O)N[C@H](C(=O)NCC(=O)N[C@@H](C)C(=O)N[C@@H](CCC(=O)O)C(=O)N[C@H](C(=O)N[C@@H](Cc1ccccc1)C(=O)N[C@@H](Cc1ccc(O)cc1)C(=O)N[C@H](C(=O)N[C@@H](CC(=O)O)C(=O)NCC(=O)N[C@@H](C)C(N)=O)C(C)C)[C@@H](C)O)C(C)C [RT(431-445)]	230	611	243	30	4660	1350	50	23	3190	293	80	148	–	–	–	–	–
CC[C@H](C)[C@H](NC(=O)CNC(=O)[C@H](CCCCN)NC(=O)[C@H](Cc1c[nH]cn1)NC(=O)[C@H](C)NC(=O)[C@@H]1CCCN1C(=O)[C@@H](NC(=O)[C@H](Cc1c[nH]c2ccccc12)NC(=O)[C@H](CO)NC(=O)[C@H](CC(C)C)NC(=O)[C@H](Cc1ccc(O)cc1)NC(=O)[C@@H](NC(=O)[C@H](CCCCN)NC(=O)[C@H](CCC(=O)O)NC(=O)[C@@H](N)CCCCN)C(C)C)C(C)C)C(=O)NCC(=O)NCC(=O)N[C@@H](CC(N)=O)C(=O)N[C@@H](CCC(=O)O)C(N)=O [RT(528-546)]	–	–	57	45	–	4850	41	33	3150	2100	–	16	612	82	1390	–	IC50 (HLA-DR DRB1*15:01): 97 nM
CC[C@H](C)[C@H](NC(=O)[C@H](Cc1ccc(O)cc1)NC(=O)CNC(=O)[C@H](CO)NC(=O)[C@H](C)NC(=O)[C@@H](NC(=O)[C@H](Cc1c[nH]cn1)NC(=O)[C@@H](NC(=O)[C@H](C)NC(=O)[C@@H](NC(=O)[C@H](CC(C)C)NC(=O)[C@@H](NC(=O)[C@@H](NC(=O)[C@H](CCCCN)NC(=O)CNC(=O)[C@@H](N)CCC(=O)O)[C@@H](C)CC)[C@@H](C)CC)C(C)C)C(C)C)C(C)C)C(=O)N[C@@H](CCC(=O)O)C(N)=O [integrase(69-85)]	146	–	–	4.5	–	–	430	58	–	2940	167	523	7940	7190	2830	1370	IC50 (HLA-DR DRB4*01:01): 56 nM
DEELLKAVRIIKILYQSNP-NH2 [rev(9-27)]	–	–	–	–	637	–	64	124	2120	66	74	–	632	4.4	–	710	IC50 [1]: 7 nM
